Data: publication PMC3156385 (Chemical research in toxicology, 2011)

How the values were obtained:
P450 1A1 = biological target: T1, P450 1A1 (Homo sapiens, UniProt P04798); assay: Inhibition of P450 1A1-dependent EROD activity; type: biochemical
T1 sequence (P04798 1-512): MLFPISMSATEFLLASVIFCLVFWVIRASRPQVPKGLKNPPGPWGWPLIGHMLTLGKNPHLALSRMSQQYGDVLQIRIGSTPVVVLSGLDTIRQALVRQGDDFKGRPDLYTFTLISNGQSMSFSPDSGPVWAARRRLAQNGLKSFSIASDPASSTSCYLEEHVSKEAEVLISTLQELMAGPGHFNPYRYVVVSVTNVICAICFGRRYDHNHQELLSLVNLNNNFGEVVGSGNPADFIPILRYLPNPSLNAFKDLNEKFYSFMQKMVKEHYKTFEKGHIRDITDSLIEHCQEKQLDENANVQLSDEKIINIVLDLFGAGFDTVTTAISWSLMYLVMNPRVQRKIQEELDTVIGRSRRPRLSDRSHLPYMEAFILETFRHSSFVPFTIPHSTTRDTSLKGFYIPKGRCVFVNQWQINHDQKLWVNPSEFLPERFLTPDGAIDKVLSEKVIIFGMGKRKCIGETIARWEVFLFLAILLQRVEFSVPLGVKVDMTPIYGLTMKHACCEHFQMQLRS

rat liver P450 1A1 = biological target: T2, rat liver P450 1A1 (Rattus norvegicus, UniProt P00185); type: binding; settings: 1.5 µM rat P450 1A1 (low-spin); 1.25~80 µM BSC
T2 sequence (P00185 1-524): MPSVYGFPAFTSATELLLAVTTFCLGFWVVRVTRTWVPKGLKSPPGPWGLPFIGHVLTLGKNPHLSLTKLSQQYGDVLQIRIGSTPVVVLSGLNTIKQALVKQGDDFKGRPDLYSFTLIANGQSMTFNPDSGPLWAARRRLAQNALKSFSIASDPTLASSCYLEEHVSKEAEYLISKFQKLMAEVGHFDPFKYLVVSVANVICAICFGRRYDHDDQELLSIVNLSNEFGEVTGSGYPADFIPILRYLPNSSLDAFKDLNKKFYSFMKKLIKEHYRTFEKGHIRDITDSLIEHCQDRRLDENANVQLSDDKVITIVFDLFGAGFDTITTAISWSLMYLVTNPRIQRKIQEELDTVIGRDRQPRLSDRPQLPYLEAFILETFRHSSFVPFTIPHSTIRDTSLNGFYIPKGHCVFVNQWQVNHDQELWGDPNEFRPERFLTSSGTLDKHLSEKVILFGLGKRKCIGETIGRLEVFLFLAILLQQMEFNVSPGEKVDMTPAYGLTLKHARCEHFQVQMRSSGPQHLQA

## N#C[Se]Cc1ccccc1 [BSC, benzyl selenocyanate]
P450 1A1
  IC50: 450 ± 38 nM
Rat liver P450 1A1
  spectral changes: did not show any spectral changes
